assay: in vitro; settings: human, hela cells, % viability

Structure (SMILES)	viability at 28.5 h, 10 µM [%]
COc1ccc(-c2nc(NCc3ccccc3)n(C(=O)c3ccc([N+](=O)[O-])cc3)n2)cc1 [CBK268265]	92.8
O=C1N[C@H]2CCCN(C(=O)Cn3cccnc3=O)[C@H]2CCCCCOc2ccccc21 [CBK292096]	109
COC(=O)CCC(=O)N1CCC(Cn2cncn2)(C2CCCCC2)CC1 [CBK136810]	90.8
CN1CCC2(CC1)CC(=O)c1cc(-c3ccc(C(=O)N(C)CCC#N)cc3)ccc1O2 [CBK156518]	89
Cc1ccc(N2CCCC2=O)cc1S(=O)(=O)NC1C2CCCCC21 (centres unmarked) [CBK282840]	69
Cc1nc(C)c(C(=O)NCC(C)(C)N2CCCCC2)o1 [CBK281866]	94.2
Cc1cc(OC(C)C(=O)Nc2ccccc2C(=O)N2CCCC2)ccc1Cl (centres unmarked) [CBK269710]	94.3
OC(COc1cccc(C(F)(F)F)c1)CN1CCN(c2nc(-c3ccccc3)ns2)CC1 (centres unmarked) [CBK074678]	93
CN(C)CCN(CC#Cc1ccccc1)CC#Cc1ccccc1 [CBK265035C]	116
O=C(Cn1cnc2c(cnn2-c2ccccc2)c1=O)N1CCc2ccccc21 [CBK287529]	91.7
CCCOCCN1CCN(C(=O)c2nn3cc(C)cnc3c2Cl)CC1 [CBK306690]	95.6
Cn1c(=O)c2[nH]c(NCCc3ccc(Cl)cc3)nc2n(C)c1=O [CBK269794]	92
CN(C)CCN(C)c1cncc(-c2cccc3ccccc23)n1 [CBK065709]	106
CCN(Cc1ccccc1)Cc1nc2ccccc2c(=O)[nH]1 [CBK283203]	95.6
C=C(C)Cn1c(SC(C)C)nnc1-c1cccnc1 [CBK200073]	85.7
CC(C)n1c(=O)c2c(-c3cc(C(C)(C)C)no3)ncn2c2ccccc21 [CBK016666]	86.6
Cc1cc(NS(=O)(=O)c2cccc(Cl)c2C)n[nH]1 [CBK024382]	91.2
Cc1nnc(SCC(=O)Nc2nsc(-c3ccc(Cl)cc3)n2)s1 [CBK266525]	91.5
O=C(Cn1ncc2cccn2c1=O)Nc1cccc(F)c1 [CBK283702]	89.8
CCN(CC)C(=O)CN1CCC(c2ccc(F)cc2)CC1 [CBK285475]	108
O=C(Nc1nccs1)c1cccc(Cl)c1Cl [CBK058011]	112

Structure (SMILES)	viability at 28.5 h, 10 µM [%]
CC(NC(=O)CN1CCCCCC1=O)c1cc2cc(Cl)ccc2o1 (centres unmarked) [CBK281448]	87.7
c1ccc2c(CCN3CCC(Oc4nccnc4OC4CCCCC4)CC3)c[nH]c2c1 [CBK082877T]	86.2
Nc1ccn(C2CC(O)C(CO)O2)c(=O)n1 (centres unmarked) [CBK201203]	95.4
CC(=O)NCCCCCC(=O)Nc1ccc(Cl)cn1 [CBK091341]	92.3
CCOC(=O)c1ccccc1NS(=O)(=O)c1cc(Cl)sc1Cl [CBK045448]	85.8
COc1cncc(C(NC(=O)Cn2ccccc2=O)[C@H]2C[C@@H](O)C2)c1 (some centres unmarked) [CBK307557]	92.5
COc1cc(C2NC(C(=O)O)Cc3c2[nH]c2ccccc32)cc(OC)c1OC (centres unmarked) [CBK219193]	101
COc1ccc(F)cc1-c1cccc(CC2(C(=O)NC3CCCCC3)CCOCC2)c1 [CBK285541]	92.8
O=S(=O)(Nc1ccc(-c2nnn[nH]2)cc1)c1c(Cl)cc(C(F)(F)F)cc1Cl [CBK155570]	95.4
CCn1c(=O)n(CCC(=O)NC(C(N)=O)c2ccccc2)c2ccccc21 (centres unmarked) [CBK295196]	89.7
O=C1CC(c2nc3ccccc3n2CCc2ccccc2)CN1c1ccccc1 (centres unmarked) [CBK266311]	101
Cc1cc(NC(=O)c2cc(C)[nH]n2)c2ccccc2n1 [CBK116260]	98.5
O=c1c2c(n3c(S)nnc3n1Cc1ccco1)-c1ccccc1CC21CCCCC1 [CBK265271]	94.7
OC1(c2cccnc2)CCCN(Cc2ccccc2F)CC1 (centres unmarked) [CBK283009]	96.4
O=C(Nc1ccccc1O)c1cc(S(=O)(=O)N2CCCCCC2)ccc1Cl [CBK264554]	89.1
O=C(NC1CCN(Cn2nnc3ccccc3c2=O)CC1)C1CC1 [CBK305584]	82.3
Cn1c(=O)n(C)c2cc(NC(=O)C(F)(F)F)ccc21 [CBK021127]	80.9
CCCSc1ccc2[nH]c(NC(=O)CSc3nc[nH]n3)nc2c1 [CBK270181]	51.8
OCCC1CCCCN1c1cncc(-c2cccs2)n1 (centres unmarked) [CBK065758]	104
O=C(c1ccccc1)n1cc(-c2ccccn2)c(N2CCOCC2)n1 [CBK021010]	100
Cc1cc(CNC(=O)N2CCCC(CO)C2)no1 (centres unmarked) [CBK156028]	94.5

Structure (SMILES)	viability at 28.5 h, 10 µM [%]
CC(=O)Nc1cc(I)cc(C(=O)O)c1 [CBK026452G]	104
CCO[C@H]1COC[C@@H]1NC(=O)c1cccc2c1NCCC2 [CBK307113]	94.9
N#Cc1ccc(C(=O)NCC2(N3CCOCC3)CCSC2)cc1 (centres unmarked) [CBK305602]	95.3
CN(C)CCN(Cc1cccs1)Cc1cc(Cl)ccc1O [CBK282847]	86.2
CC(=O)Nc1ccc(S(=O)(=O)NC2(C(F)(F)F)C(=O)Nc3c2c(=O)[nH]c(=S)n3C2CCCCC2)cc1 (centres unmarked) [CBK268683]	97.2
CS(=O)(=O)c1ccc(CN2CC[C@H](c3nc4ncccc4[nH]3)C2)cc1 [CBK289385]	101
CN(C)CCCNc1ccc(-c2nnc(O)c3ccccc23)cc1[N+](=O)[O-] [CBK266200]	100
CCn1cc(S(=O)(=O)Nc2cccc(CCCC(=O)O)c2)cn1 [CBK304717]	102
O=C(O)C1CC(O)CN1S(=O)(=O)c1ccc([N+](=O)[O-])cc1 (centres unmarked) [CBK266158]	100
CCOCCn1c(CN2CCCCC2)nc2c1c(=O)n(C)c(=O)n2C [CBK306028]	85.8
Cc1cccc(C2NS(=O)(=O)NC2=N)c1 (centres unmarked) [CBK263868]	98.3
Cc1ccc(-c2noc(CN3CCN(c4ccccn4)CC3)n2)cc1 [CBK266457]	95.7
O=C(C1CCCC1)N1C[C@@H]2CCCCN(Cc3cccnc3)[C@@H]2C1 [CBK285492]	101
O=C(COc1ccc(C(=O)c2ccc(F)cc2)cc1)c1ccc2c(c1)OCCO2 [CBK297536]	111
O=C(NC1CCN(Cc2c(F)cccc2Cl)CC1)c1cccs1 [CBK057035]	100
Cc1oc(C(=O)N2CCc3sccc3C2c2ccccc2)cc1CN1CCOCC1 (centres unmarked) [CBK285566]	105
COc1ccc(C(=O)N2CCN(C)CC2)cc1Nc1cncc(-c2cc3ccccc3o2)n1 [CBK155266T]	89.9
CN1CCN(C(=O)c2cc(Br)cnc2NCc2cccnc2)CC1 [CBK076347]	87.3
CC(C)NC(=O)Nc1ccccc1-c1ncn(C)n1 [CBK020922]	95.6
CC(C)(C)OC(=O)N1CCN(c2ccc(Cl)nn2)CC1 [CBK113381]	96.2
Cc1cc(C(=O)N2CCC(c3nccn3C)CC2)ccc1F [CBK304355]	89.7

same assay, conditions: human, hela cells, % viability, bulk resorufin, single well

Structure (SMILES)	viability at 28.5 h, 10 µM [%]
O=[N+]([O-])c1cccc(-c2ccc3c(c2)COC2(CCNCC2)O3)c1 [CBK060957]	105
O=C(O)C1CC1C(=O)N1CCC2(CC1)OCc1cc(-c3ccco3)ccc1O2 (centres unmarked) [CBK060825]	103
